Reference: patent US10881719B2, “Combinatorial androgen deprivation with an androgen receptor vaccine” (Wisconsin Alumni Research Foundation, priority 2016, dated 2021)
Square brackets hold non-standard residues; d marks the D form. Peptide text beside a SMILES is read from it. * marks the point of attachment. dPhe(4-NHCONH2) = NC(=O)Nc1ccc(C[C@@H](N)C(=O)O)cc1; Dihydroorotyl(S) = O=C1C[C@@H](C(=O)*)NC(=O)N1; dPhe(4-Cl) = N[C@H](Cc1ccc(Cl)cc1)C(=O)O; Phe(4-NH2) = Nc1ccc(C[C@H](N)C(=O)O)cc1; d2Nal = N[C@H](Cc1ccc2ccccc2c1)C(=O)O; Lys(iPr) = CC(C)NCCCC[C@H](N)C(=O)O; d3Pal = N[C@H](Cc1cccnc1)C(=O)O

Columns and labels:
prostate tumor cells = test: AR expression in prostate tumor cells in vitro after treatment with AR antagonists; assay type: cell-based; settings: after treatment with AR antagonist
Myc-CaP/AS tumors [1] = test: Myc-CaP/AS tumor growth in FVB mice, ADT with or without immunization; assay type: in vivo; settings: degarelix alone, MycCaP model
Protocol: Briefly, male FVB mice (n=8) were implanted with MycCaP tumors, treated with degarelix (or sham), and immunized weekly with pTVG-AR or control pTVG4. FIG. 8A, splenocytes were collected and analyzed for immune responses against MycCaP/CR tumor cells by intracellular cytokine staining (left panel) and AR peptide-stimulated splenocytes from pTVG-AR-immunized mice were measured for ability to lyse MycCap/AS vs. MycCap/CR tumor cells (right panel). FIG. 8B depicts mice followed for tumor volume. In all panels, * indicates p<0.05 by Student's t-test. FIG. 8C depicts tumor volume post-challenge of control (sham), degarelix+pTVG4 and degarelix+pTVG-AR.
FVB mice were inoculated subcutaneously with […] Myc-CaP/AS tumor cells, and followed daily for the presence of palpable tumors. Once tumors were palpable, mice were treated subcutaneously with either degarelix (25 mg/kg) or a vehicle sham treatment every four weeks. For immunization studies, degarelix-treated animals were randomized to weekly immunization with 100 μg pTVG4 or pTVG-AR beginning one day after receiving degarelix. Tumor growth was measured at least three times weekly, and tumor volumes calculated as we've published (19). At the time of euthanasia, tumors and spleens were collected. […]

Myc-CaP/AS tumors [2] = test: AR expression in MycCaP tumors in vivo after chemical castration, intracellular staining; design: species or system FVB mice; settings: MycCaP model in vivo, degarelix vs sham, tumors at outgrowth
Text: Briefly, Human 22Rv1 prostate cancer cells cultured in androgen replete (FCS) or—deprived (CSS) conditions (FIG. 7A), or mouse MycCaP cells serially passaged in untreated (MycCaP/AS) or castrate (MycCaP/CR) mice (FIG. 7B) were collected and analyzed for AR expression by qPCR (left panels), ELISA (center panels), and intracellular staining (ICS, right panels). FIG. 7C, FVB mice were challenged with MycCaP/AS tumor cells, and given degarelix or a sham treatment. At the time of outgrowth, tumors were collected and analyzed for AR expression by intracellular flow cytometry (example histogram with samples stained with IgG or AR-intracellular antibodies; quantified in right panels). FIG. 7D, AR-specific CD8+ T cells were cultured with 22Rv1/FCS or 22Rv1/CSS cells, and evaluated for T-cell activation by CD69 expression (left panel), IFNγ and TNFα cytokine expression (center panel), and cytotoxicity (right panel). In all panels, * indicates p<0.05 by Student's t-test.
FVB mice were inoculated subcutaneously with […] Myc-CaP/AS tumor cells, and followed daily for the presence of palpable tumors. Once tumors were palpable, mice were treated subcutaneously with either degarelix (25 mg/kg) or a vehicle sham treatment every four weeks. […] Tumor growth was measured at least three times weekly, and tumor volumes calculated as we've published (19). […]

[3] = test system: PTEN-deficient prostate tumors; test: Autochthonous prostate tumors in PbCre+ PTENfl/fl mice, PET/CT and necropsy; assay type: in vivo; settings: androgen deprivation (degarelix) vs sham, pre- to post-treatment
Protocol: FVB mice were inoculated subcutaneously with […] Myc-CaP/AS tumor cells, and followed daily for the presence of palpable tumors. Once tumors were palpable, mice were treated subcutaneously with either degarelix (25 mg/kg) or a vehicle sham treatment every four weeks. For immunization studies, degarelix-treated animals were randomized to weekly immunization with 100 μg pTVG4 or pTVG-AR beginning one day after receiving degarelix. Tumor growth was measured at least three times weekly, and tumor volumes calculated as we've published (19). At the time of euthanasia, tumors and spleens were collected. For studies using PTEN-deficient mice, animals began receiving degarelix (25 mg/kg) at 20 weeks (+/−two weeks) of age, followed by biweekly immunization with 100 μg pTVG4 or pTVG-AR beginning one day after ADT. Animals were treated until 40 weeks of age (+/−two weeks) before tissue collection.
All mice were intravenously administered between 5-8 MBq of 124I-CLR1404 and then micro positron emission tomography/computed tomography (PET/CT) scanned 96 hrs post-injection. During scanning, mice were anesthetized with 2% isoflurane inhalation gas mixed with 1 L/min of pure oxygen (27). […]
All PET and CT images were co-registered. Image data were analyzed using the General Analysis tools provided by Siemens Inveon Research Workplace (Siemens Medical Solutions). […]

SMILES | AR expression in prostate tumor cells (prostate tumor cells) | tumor growth (Myc-CaP/AS tumors [1]) | AR expression in tumors (Myc-CaP/AS tumors [2]) | 124I-CLR1404 mean and max tumor uptake [3]
CNC(=O)c1ccc(N2C(=S)N(c3ccc(C#N)c(C(F)(F)F)c3)C(=O)C2(C)C)cc1F [enzalutamide] | increased AR expression | – | – | –
CC(=O)N[C@H](Cc1ccc2ccccc2c1)C(=O)N[C@H](Cc1ccc(Cl)cc1)C(=O)N[C@H](Cc1cccnc1)C(=O)N[C@@H](CO)C(=O)N[C@@H](Cc1ccc(NC(=O)[C@@H]2CC(=O)NC(=O)N2)cc1)C(=O)N[C@H](Cc1ccc(NC(N)=O)cc1)C(=O)N[C@@H](CC(C)C)C(=O)N[C@@H](CCCCNC(C)C)C(=O)N1CCC[C@H]1C(=O)N[C@H](C)C(N)=O [degarelix] (Ac-[d2Nal][dPhe(4-Cl)][d3Pal]S[Phe(4-NH2)](Dihydroorotyl(S))[dPhe(4-NHCONH2)]L[Lys(iPr)]P[dA]-NH2) | – | delay in tumor growth | increased AR expression in tumors | decreased 124I-CLR1404 mean and max tumor uptake
